{"source": "ChEMBL document CHEMBL1201862", "about": "“PubChem BioAssay data set” (2004)", "key": {"[1]": {"assay": "Luminescence Cell-Based Dose Retest to Confirm Inhibitors of Cancer Stem Cells. [Related pubchem assays (depositor defined):AID2717, AID2721]", "format": "functional", "conditions": "Homo sapiens"}, "[2]": {"biological_target": "Hepatocyte nuclear factor 4-alpha (Homo sapiens, UniProt P41235)", "sequence (P41235 whole entry)": "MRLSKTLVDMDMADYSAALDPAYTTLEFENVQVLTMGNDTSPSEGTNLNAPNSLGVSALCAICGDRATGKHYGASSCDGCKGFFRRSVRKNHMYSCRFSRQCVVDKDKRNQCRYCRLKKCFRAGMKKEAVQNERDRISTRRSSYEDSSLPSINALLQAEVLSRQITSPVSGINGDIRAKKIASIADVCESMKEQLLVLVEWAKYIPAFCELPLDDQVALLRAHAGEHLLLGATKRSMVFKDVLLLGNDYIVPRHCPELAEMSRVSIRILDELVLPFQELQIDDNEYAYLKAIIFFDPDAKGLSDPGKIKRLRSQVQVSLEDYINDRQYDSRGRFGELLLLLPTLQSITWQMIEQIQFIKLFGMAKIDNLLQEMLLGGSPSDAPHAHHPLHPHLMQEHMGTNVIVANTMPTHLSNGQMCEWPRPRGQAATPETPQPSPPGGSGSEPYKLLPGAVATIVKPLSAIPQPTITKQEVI", "format": "functional, cell-based"}, "Vero": {"test_system": "Vero", "assay": "cells", "format": "functional", "conditions": "Chlorocebus sabaeus"}, "[3]": {"biological_target": "Induced myeloid leukemia cell differentiation protein Mcl-1 (Homo sapiens, UniProt Q07820)", "sequence (Q07820 whole entry)": "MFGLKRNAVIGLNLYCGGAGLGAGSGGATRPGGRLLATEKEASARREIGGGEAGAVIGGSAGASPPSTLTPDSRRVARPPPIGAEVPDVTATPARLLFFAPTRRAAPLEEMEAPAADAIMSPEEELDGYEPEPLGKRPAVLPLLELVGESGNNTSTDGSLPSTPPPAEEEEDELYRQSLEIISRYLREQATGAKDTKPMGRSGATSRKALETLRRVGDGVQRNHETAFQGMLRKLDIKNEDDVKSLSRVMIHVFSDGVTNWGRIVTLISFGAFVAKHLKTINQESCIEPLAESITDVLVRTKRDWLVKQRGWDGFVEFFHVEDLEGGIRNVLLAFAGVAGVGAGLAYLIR", "assay": "blockers of MCL1 binding to BIM peptide – biochemical, fluorescence polarization, BIM-BH3 peptide, 1536-well, dose response (AID 2217)"}, "[4]": {"biological_target": "T1, Small ubiquitin-related modifier 1 (Homo sapiens, UniProt P63165)", "T1 sequence (P63165 whole entry)": "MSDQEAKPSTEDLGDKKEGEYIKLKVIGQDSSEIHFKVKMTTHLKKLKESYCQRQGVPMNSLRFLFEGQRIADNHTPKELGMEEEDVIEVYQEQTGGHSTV", "assay": "SUMO1 protein interaction blockers, potency – biochemical, fluorescence polarization, uHTS hits, dose response (AID 624382)", "format": "functional", "conditions": "read-out: IC50_Mean"}, "[5]": {"biological_target": "T1, Small ubiquitin-related modifier 1", "assay": "SUMO1 protein-protein binding blockers, potency – biochemical, FRET, dose response (AID 624383)", "format": "functional", "conditions": "read-out: IC50_Mean"}, "Bcl-2-like protein 1": {"biological_target": "Bcl-2-like protein 1 (Homo sapiens, UniProt Q07817)", "sequence (Q07817 whole entry)": "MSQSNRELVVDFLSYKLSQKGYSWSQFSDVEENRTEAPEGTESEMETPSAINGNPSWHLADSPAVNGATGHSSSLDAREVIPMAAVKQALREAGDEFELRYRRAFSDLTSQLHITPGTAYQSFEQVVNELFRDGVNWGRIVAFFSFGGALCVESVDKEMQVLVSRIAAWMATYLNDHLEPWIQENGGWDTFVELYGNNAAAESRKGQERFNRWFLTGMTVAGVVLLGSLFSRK", "assay": "blockers of BCLXL peptide binding – biochemical, fluorescence polarization, 1536-well, selectivity assay for MCL1 inhibitor project, dose response (AID 2218)"}, "[6]": {"biological_target": "DNA (cytosine-5)-methyltransferase 1 (Homo sapiens, UniProt P26358)", "assay": "inhibition of DNA methylation by DNMT1 – biochemical, fluorescent molecular beacon, confirmation (AID 602386)", "format": "functional"}, "[7]": {"biological_target": "Multidrug resistance protein CDR2 (Candida albicans (strain SC5314 / ATCC MYA-2876) (Yeast), UniProt P78595)", "sequence (P78595 whole entry)": "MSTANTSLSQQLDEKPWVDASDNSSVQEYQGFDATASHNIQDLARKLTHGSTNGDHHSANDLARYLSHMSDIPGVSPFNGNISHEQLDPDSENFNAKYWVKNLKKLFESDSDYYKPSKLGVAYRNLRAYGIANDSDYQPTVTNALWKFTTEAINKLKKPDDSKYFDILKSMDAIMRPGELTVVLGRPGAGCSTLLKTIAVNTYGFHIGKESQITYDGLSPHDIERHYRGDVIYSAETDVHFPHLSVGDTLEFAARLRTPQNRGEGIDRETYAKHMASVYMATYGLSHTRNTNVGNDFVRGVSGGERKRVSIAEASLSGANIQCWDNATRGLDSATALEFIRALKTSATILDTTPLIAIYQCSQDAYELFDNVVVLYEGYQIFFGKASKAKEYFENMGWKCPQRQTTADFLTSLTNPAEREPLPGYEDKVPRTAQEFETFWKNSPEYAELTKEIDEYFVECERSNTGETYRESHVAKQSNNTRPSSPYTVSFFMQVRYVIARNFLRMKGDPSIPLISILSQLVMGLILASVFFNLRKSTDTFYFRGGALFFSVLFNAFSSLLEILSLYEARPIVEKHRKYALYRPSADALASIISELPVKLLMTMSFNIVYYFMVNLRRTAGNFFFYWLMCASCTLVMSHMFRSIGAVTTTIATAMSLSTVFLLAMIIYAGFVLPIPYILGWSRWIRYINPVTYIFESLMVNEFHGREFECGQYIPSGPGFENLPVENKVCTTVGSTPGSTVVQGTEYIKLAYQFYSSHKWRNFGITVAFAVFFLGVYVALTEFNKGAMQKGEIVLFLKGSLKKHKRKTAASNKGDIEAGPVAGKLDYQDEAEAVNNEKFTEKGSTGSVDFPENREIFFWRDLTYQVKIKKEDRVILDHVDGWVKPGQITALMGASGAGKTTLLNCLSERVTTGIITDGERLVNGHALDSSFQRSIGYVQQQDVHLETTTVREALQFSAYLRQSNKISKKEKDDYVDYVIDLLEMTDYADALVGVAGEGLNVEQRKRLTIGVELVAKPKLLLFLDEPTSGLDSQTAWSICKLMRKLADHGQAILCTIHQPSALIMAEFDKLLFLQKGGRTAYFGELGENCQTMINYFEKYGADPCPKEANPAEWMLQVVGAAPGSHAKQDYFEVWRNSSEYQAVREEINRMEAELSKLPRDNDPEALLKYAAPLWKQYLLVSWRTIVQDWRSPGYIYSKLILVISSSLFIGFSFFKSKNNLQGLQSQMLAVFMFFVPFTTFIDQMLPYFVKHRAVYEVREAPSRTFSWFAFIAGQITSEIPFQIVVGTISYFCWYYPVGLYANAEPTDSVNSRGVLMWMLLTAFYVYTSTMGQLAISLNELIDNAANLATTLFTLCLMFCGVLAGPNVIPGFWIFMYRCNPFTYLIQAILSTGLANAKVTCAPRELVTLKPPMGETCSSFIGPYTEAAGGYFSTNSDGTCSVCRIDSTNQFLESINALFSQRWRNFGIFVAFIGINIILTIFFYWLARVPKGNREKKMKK", "assay": "blockers of Nile Red efflux by Candida CDR2 – S. cerevisiae AD1-8u, singleplex, Cherry Pick2 set, dose response (AID 623994)", "format": "functional", "conditions": "read-out: EC50_MICROM"}, "[8]": {"assay": "Luminescence Cell-Based Dose Response HTS to Identify Activators of Luciferase Translation or Activity in H4 […] Cells. [Related pubchem assays: 1829 (Project Summary), 1814 (Primary HTS)]", "format": "functional"}, "H4": {"test_system": "H4", "assay": "Luminescence Cell-Based Dose Response HTS to Identify Activators of 5'UTR Stem-Loop Driven Prion Protein mRNA Translation in H4 Neuroglioblastoma Cells. [Related pubchem assays: 1829 (Project Summary), 1814 (Primary HTS)]", "format": "functional", "conditions": "Homo sapiens"}, "[9]": {"assay": "Luminescence Cell-Based Dose Confirmation HTS to Identify Activators of 5'UTR Stem-Loop Driven Alpha-Synuclein mRNA Translation in H4 Neuroglioblastoma Cells. [Related pubchem assays: 1829 (Project Summary), 1814 (Primary HTS)]", "format": "functional"}, "Steroidogenic factor 1": {"biological_target": "Steroidogenic factor 1 (Homo sapiens, UniProt Q13285)", "sequence (Q13285 whole entry)": "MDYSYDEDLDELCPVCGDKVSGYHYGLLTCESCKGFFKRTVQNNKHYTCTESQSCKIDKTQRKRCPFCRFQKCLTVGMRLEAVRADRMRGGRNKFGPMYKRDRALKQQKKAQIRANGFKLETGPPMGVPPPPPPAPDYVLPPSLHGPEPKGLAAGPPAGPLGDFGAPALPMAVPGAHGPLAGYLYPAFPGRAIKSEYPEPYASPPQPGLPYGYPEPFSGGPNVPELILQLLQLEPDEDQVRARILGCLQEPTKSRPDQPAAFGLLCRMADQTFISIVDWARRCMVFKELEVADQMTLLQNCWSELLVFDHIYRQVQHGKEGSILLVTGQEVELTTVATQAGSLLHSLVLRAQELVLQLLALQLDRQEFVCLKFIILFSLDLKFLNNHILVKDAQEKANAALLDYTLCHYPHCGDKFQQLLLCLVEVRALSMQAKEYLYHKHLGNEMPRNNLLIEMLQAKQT", "assay": "Counterscreen for inverse agonists of the liver receptor homolog-1 (LRH-1; NR5A2): Luminescence-based cell-based high throughput dose response assay to identify inverse agonists of the Steroidogenic Factor 1 Nuclear Receptor (SF1; NR5A1).", "format": "functional"}, "[10]": {"assay": "nonselective StAR promoter luciferase inhibitors – cell-based, luminescence, luciferase reporter, counter-screen for LRH-1 inverse agonist project, dose response (AID 651969)", "format": "functional"}, "[11]": {"biological_target": "Nuclear receptor subfamily 5 group A member 2 (Homo sapiens, UniProt O00482)", "sequence (O00482 whole entry)": "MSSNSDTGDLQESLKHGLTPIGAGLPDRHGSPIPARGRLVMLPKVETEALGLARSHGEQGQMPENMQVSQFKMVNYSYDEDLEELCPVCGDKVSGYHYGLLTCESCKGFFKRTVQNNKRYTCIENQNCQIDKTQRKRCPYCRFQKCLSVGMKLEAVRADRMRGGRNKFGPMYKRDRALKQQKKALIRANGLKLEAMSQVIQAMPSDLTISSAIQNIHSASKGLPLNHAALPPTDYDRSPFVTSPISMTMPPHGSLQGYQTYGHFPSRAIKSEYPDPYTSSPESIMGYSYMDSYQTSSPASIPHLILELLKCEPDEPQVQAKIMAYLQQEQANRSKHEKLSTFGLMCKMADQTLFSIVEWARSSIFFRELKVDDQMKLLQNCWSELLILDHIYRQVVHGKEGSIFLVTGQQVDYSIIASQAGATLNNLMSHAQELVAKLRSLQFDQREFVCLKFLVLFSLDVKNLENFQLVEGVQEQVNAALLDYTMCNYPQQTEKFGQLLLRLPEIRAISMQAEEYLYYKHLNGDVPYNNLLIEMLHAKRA", "format": "functional, cell-based"}, "Beta-lactamase [12]": {"biological_target": "Beta-lactamase (Pseudomonas aeruginosa, UniProt Q79MP6)", "sequence (Q79MP6 whole entry)": "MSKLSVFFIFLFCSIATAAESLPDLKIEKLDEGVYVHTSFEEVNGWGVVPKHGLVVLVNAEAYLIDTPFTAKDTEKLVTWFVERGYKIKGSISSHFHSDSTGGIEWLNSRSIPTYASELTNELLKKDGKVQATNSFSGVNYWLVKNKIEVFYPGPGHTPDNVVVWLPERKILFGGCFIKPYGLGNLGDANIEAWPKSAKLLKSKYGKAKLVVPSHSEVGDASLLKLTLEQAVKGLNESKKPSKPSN"}, "Beta Lactamase": {"biological_target": "Beta Lactamase (Pseudomonas aeruginosa, UniProt Q932Y6)", "sequence (Q932Y6 whole entry)": "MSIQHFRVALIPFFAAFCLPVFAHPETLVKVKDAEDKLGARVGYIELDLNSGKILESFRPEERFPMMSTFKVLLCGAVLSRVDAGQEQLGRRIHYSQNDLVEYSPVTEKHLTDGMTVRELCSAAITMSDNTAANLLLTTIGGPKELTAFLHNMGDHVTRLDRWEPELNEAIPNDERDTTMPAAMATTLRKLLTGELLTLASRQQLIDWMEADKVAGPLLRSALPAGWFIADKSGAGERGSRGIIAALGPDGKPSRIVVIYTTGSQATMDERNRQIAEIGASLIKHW"}, "Beta-lactamase [13]": {"biological_target": "Beta-lactamase (Salmonella choleraesuis (strain SC-B67), UniProt Q5J463)", "sequence (Q5J463 whole entry)": "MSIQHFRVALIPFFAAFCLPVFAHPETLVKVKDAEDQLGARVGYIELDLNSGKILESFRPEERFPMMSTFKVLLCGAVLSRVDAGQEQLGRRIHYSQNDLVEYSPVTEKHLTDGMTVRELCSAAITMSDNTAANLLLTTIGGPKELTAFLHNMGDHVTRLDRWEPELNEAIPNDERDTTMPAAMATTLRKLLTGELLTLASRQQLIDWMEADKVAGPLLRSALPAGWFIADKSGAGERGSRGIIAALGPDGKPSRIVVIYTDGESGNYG"}}, "note": "Active and inactive are the calls of the source.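 Throughout, for AC50: cells exposed to compound for roughly 70 hours or longer before luminescence read.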", "data": [{"smiles": "Cc1ccc(/C=C/C(=O)c2cc(Br)ccc2OC(=O)c2ccco2)cc1", "values": [{"measurement": "AC50", "setting": "[1]", "result": "4.76 µM (active)"}, {"measurement": "IC50", "setting": "[2]", "result": "1.96 µM (active)"}, {"measurement": "CC50", "setting": "Vero", "result": "24.4 µM (active)"}]}, {"smiles": "CCOc1ccc(NC(=O)c2cccc(-n3cccc3)c2)cc1S(=O)(=O)N1CCOCC1", "values": [{"measurement": "IC50", "setting": "[3]", "result": "> 4.03 µM (active)"}, {"measurement": "IC50", "setting": "[4]", "result": "> 66.6 µM (inactive)"}, {"measurement": "IC50", "setting": "[5]", "result": "3.29 µM (active)"}, {"measurement": "IC50", "setting": "Bcl-2-like protein 1", "result": "> 109 µM (not active)"}, {"measurement": "IC50", "setting": "[6]", "result": "9.08 µM (active)"}]}, {"smiles": "O=C(Nc1ccccc1)C1=C[C@H](c2ccccc2)C[C@H](OCCCCO)O1", "values": [{"measurement": "EC50", "setting": "[7]", "result": "27.7 µM (active)"}, {"measurement": "EC50", "setting": "[8]", "result": "9.7 µM (active)"}, {"measurement": "EC50", "setting": "H4", "result": "22 µM (active)"}, {"measurement": "EC50", "setting": "[9]", "result": "11.6 µM (active)"}]}, {"smiles": "CC1(C(=O)NCc2ccc3c(c2)OCO3)CCN1C(=O)Cc1ccc(Cl)cc1Cl", "note": "(stereo not drawn)", "values": [{"measurement": "IC50", "setting": "Steroidogenic factor 1", "result": "3.32 µM (active)"}, {"measurement": "IC50", "setting": "[10]", "result": "35.9 µM (inactive)"}, {"measurement": "IC50", "setting": "[11]", "result": "7.36 µM (active)"}]}, {"smiles": "C/C(=N\\O)c1ccc2c3c([nH]c2c1)CCCC3", "values": [{"measurement": "IC50", "setting": "Beta-lactamase [12]", "result": "> 59.6 µM (inactive)"}, {"measurement": "IC50", "setting": "Beta Lactamase", "result": "> 59.6 µM (inactive)"}, {"measurement": "IC50", "setting": "Beta-lactamase [13]", "result": "> 59.6 µM (inactive)"}]}]}
